Data: patent US20080200448A1, “New Pyridine Analogues VIII 518” (ASTRAZENECA AB, priority 2007, published 2008)

Target: T1, P2Y12 receptor (Homo sapiens, UniProt Q9H244)
T1 construct: expressed in transfected cells; host or cells: CHO cells (membrane preparation)
Test: Functional inhibition of 2-Me-S-ADP induced P2Y12 signalling (35S-GTPγS binding, cell membranes)
Type: biochemical
Conditions: 35S-GTPγS assay, membranes, EC80 concentration of 2-methyl-thio-adenosine diphosphate, 30° C. for 45 min; read-out: GTPγS (IC50 μM)
Description: Functional inhibition of- the P2Y12 receptor can be measured by in vitro assays using cell membranes from P2Y12 transfected CHO-cells, the methodology is indicated below.
Functional inhibition of 2-Me-S-ADP induced P2Y12 signalling: 5 μg of membranes were diluted in 200 μl of 200 mM NaCl, 1 mM MgCl2, 50 mM HEPES (pH 7.4), 0.01% BSA, 30 μg/ml saponin and 10 μM GDP. To this was added an EC80 concentration of agonist (2-methyl-thio-adenosine diphosphate), the required concentration of test compound and 0.1 μCi ^35S-GTPγS. The reaction was allowed to proceed at 30° C. for 45 min. Samples were then transferred on to GF/B filters using a cell harvester and washed with wash buffer (50 mM Tris (pH 7.4), 5 mM MgCl2, 50 mM NaCl). Filters were then covered with scintilant and counted for the amount of ^35S-GTPγS retained by the filter. Maximum activity was that determined in the presence of the agonist and minimum activity in the absence of the agonist following subtraction of the value determined for non-specific activity. The effect of compounds at various concentrations was plotted according to the equation
y=A+((B−A)/(1+((C/x)̂D)))
and IC50 estimated where A is the bottom plateau of the curve i.e. the final minimum y value B is the top of the plateau of the curve i.e. the final maximum y value C is the x value at the middle of the curve. This represents the log EC50 value when A+B=100 D is the slope factor. x is the original known x values. Y is the original known y values.

T1 sequence (Q9H244 whole entry): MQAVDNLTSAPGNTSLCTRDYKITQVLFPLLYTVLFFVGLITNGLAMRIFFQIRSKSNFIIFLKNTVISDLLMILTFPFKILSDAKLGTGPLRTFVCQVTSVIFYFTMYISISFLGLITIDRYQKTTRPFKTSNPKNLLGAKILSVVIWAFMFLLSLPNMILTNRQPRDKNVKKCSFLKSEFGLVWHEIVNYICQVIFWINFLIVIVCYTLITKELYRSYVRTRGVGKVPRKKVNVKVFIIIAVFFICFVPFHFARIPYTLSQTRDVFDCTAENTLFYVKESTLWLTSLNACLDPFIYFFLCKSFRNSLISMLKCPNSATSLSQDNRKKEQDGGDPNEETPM

| IC50 [µM] | SMILES |
| --- | --- |
| 0.0097 | CCOC(=O)c1cc(C#N)c(N2CCC(C(=O)NS(=O)(=O)Cc3ccc(C(F)(F)F)cc3)CC2)nc1CN1CCCC1=O [Example 35, Ethyl 5-cyano-2-[(2-oxopyrrolidin-1-yl)methyl]-6-[4-({[4-(trifluoromethyl)benzyl]sulfonyl}carbamoyl)piperidin-1-yl]nicotinate] |
| 0.122 | CCCOC(=O)c1cc(F)c(N2CCC(C(=O)NS(=O)(=O)Cc3ccccc3)CC2)nc1CN1CCCC1=O [Example 130, Propyl 6-{4-[(benzylsulfonyl)carbamoyl]piperidin-1-yl}-5-fluoro-2-[(2-oxopyrrolidin-1-yl)methyl]nicotinate] |
| 0.075 | CCOC(=O)c1cc(C#N)c(N2CCC(C(=O)NS(=O)(=O)Cc3ccccc3)CC2)nc1OCC(=O)NC [Example 25, Ethyl 6-{4-[(benzylsulfonyl)carbamoyl]piperidin-1-yl}-5-cyano-2-[2-(methylamino)-2-oxoethoxy]nicotinate] |
| 0.093 | CCOC(=O)c1cc(C#N)c(N2CCC(C(=O)N(CC(=O)O)S(=O)(=O)Cc3ccccc3)CC2)nc1C [Example 1, N-(benzylsulfonyl)-N-({1-[3-cyano-5-(ethoxycarbonyl)-6-methylpyridin-2-yl]piperidin-4-yl}carbonyl)glycine] |
| 0.01 | CCOC(=O)c1cc(C#N)c(N2CCC(C(=O)NS(=O)(=O)Cc3ccccc3)CC2)nc1SCCNC(C)=O [Example 21, Ethyl 2-[(2-acetamidoethyl)thio]-6-{4-[(benzylsulfonyl)carbamoyl]piperidin-1-yl}-5-cyanonicotinate] |
| 0.027 | CCOC(=O)c1cc(C#N)c(N2CCC(C(=O)NS(=O)(=O)Cc3ccccc3)CC2)nc1OCCC#N [Example 17, Ethyl 6-{4-[(benzylsulfonyl)carbamoyl]piperidin-1-yl}-5-cyano-2-(2-cyanoethoxy)nicotinate] |
| 0.025 | CCOC(=O)c1cc(C#N)c(N2CCC(C(=O)NS(=O)(=O)Cc3ccccc3)CC2)nc1CN=[N+]=[N-] [Example 11, Ethyl 2-(azidomethyl)-6-{4-[(benzylsulfonyl)carbamoyl]piperidin-1-yl}-5-cyanonicotinate] |
| 0.065 | CC(C)OC(=O)c1cc(C#N)c(N2CCC(C(=O)NS(=O)(=O)CC3CCCC3)CC2)nc1CN1CCCC1=O [Example 47, Isopropyl 5-cyano-6-(4-{[(cyclopentylmethyl)sulfonyl]carbamoyl}piperidin-1-yl)-2-[(2-oxopyrrolidin-1-yl)methyl]nicotinate] |
| 0.022 | CCOC(=O)c1cc(C#N)c(N2CCC(C(=O)NS(=O)(=O)Cc3ccccc3)CC2)nc1CCC(C)=O [Example 112, Ethyl 6-{4-[(benzylsulfonyl)carbamoyl]piperidin-1-yl}-5-cyano-2-(3-oxobutyl)nicotinate] |
| 1.22 | CCSC(=O)c1cc(C#N)c(N2CCC(C(=O)NS(=O)(=O)CC3CCCC3)CC2)nc1CN1CCCC1=O [Example 97, S-Ethyl 5-cyano-6-(4-{[(cyclopentylmethyl)sulfonyl]carbamoyl}piperidin-1-yl)-2-[(2-oxopyrrolidin-1-yl)methyl]pyridine-3-carbothioate] |
| 0.138 | CCOC(=O)c1cc(C#N)c(N2CCC(C(=O)NS(=O)(=O)Cc3ccc([Si](C)(C)C)cc3)CC2)nc1CN1CCCC1=O [Example 100, Ethyl 5-cyano-2-[(2-oxopyrrolidin-1-yl)methyl]-6-[4-({[4-(trimethylsilyl)benzyl]sulfonyl}carbamoyl)piperidin-1-yl]nicotinate] |
| 0.017 | CCOC(=O)c1cc(C#N)c(N2CCC(C(=O)NS(=O)(=O)Cc3ccccc3)CC2)nc1OCCCC(C)=O [Example 121, Ethyl 6-{4-[(benzylsulfonyl)carbamoyl]piperidin-1-yl}-5-cyano-2-[(4-oxopentyl)oxy]nicotinate] |
| 0.069 | CCOC(=O)c1cc(C#N)c(N2CC(C(=O)NS(=O)(=O)Cc3ccccc3)C2)nc1CN=[N+]=[N-] [Example 9, Ethyl 2-(azidomethyl)-6-{3-[(benzylsulfonyl)carbamoyl]azetidin-1-yl}-5-cyanonicotinate] |
| 0.037 | CCOC(=O)c1cc(C#N)c(N2CCC(C(=O)NS(=O)(=O)CC3CCC3)CC2)nc1CN1CCCC1=O [Example 74, Ethyl 5-cyano-6-(4-{[(cyclobutylmethyl)sulfonyl]carbamoyl}piperidin-1-yl)-2-[(2-oxopyrrolidin-1-yl)methyl]nicotinate] |
| 0.066 | CC(C)OC(=O)c1cc(C#N)c(N2CCC(C(=O)NS(=O)(=O)Cc3ccc(F)cc3Cl)CC2)nc1CN1CCCC1=O [Example 49, Isopropyl 6-(4-{[(2-chloro-4-fluorobenzyl)sulfonyl]carbamoyl}piperidin-1-yl)-5-cyano-2-[(2-oxopyrrolidin-1-yl)methyl]nicotinate] |
| 0.104 | CC1CCC(CS(=O)(=O)NC(=O)C2CCN(c3nc(CN4CCCC4=O)c(C(=O)OC(C)C)cc3C#N)CC2)CC1 (centres unmarked) [Example 54, Isopropyl 5-cyano-6-[4-({[(4-methylcyclohexyl)methyl]sulfonyl}carbamoyl)piperidin-1-yl]-2-[(2-oxopyrrolidin-1-yl)methyl]nicotinate] |
| 0.052 | CCOC(=O)c1cc(C#N)c(N2CCC(C(=O)NS(=O)(=O)Cc3ccccc3)CC2)nc1CSc1nccn1C [Example 118, Ethyl 6-{4-[(benzylsulfonyl)carbamoyl]piperidin-1-yl}-5-cyano-2-{[(1-methyl-1H-imidazol-2-yl)thio]methyl}nicotinate] |
| 0.039 | CCOC(=O)COc1nc(N2CCC(C(=O)NS(=O)(=O)Cc3ccccc3)CC2)c(C#N)cc1C(=O)OCC [Example 8, Ethyl 6-{4-[(benzylsulfonyl)carbamoyl]piperidin-1-yl}-5-cyano-2-(2-ethoxy-2-oxoethoxy)nicotinate] |
| 0.079 | CCOC(=O)c1cc(F)c(N2CCC(C(=O)NS(=O)(=O)Cc3ccccc3)CC2)nc1CN1CCCC1=O [Example 127, Ethyl 6-{4-[(benzylsulfonyl)carbamoyl]piperidin-1-yl}-5-fluoro-2-[(2-oxopyrrolidin-1-yl)methyl]nicotinate] |
| 0.057 | CCOC(=O)c1cc(Cl)c(N2CCC(C(=O)NS(=O)(=O)Cc3ccc(Cl)cc3)CC2)nc1SCCNC(C)=O [Example 104, Ethyl 2-[(2-acetamidoethyl)thio]-5-chloro-6-(4-{[(4-chlorobenzyl)sulfonyl]carbamoyl}piperidin-1-yl)nicotinate] |
| 0.033 | CCOC(=O)c1cc(C#N)c(N2CCC(C(=O)NS(=O)(=O)Cc3ccccc3)CC2)nc1CSCCNC(C)=O [Example 29, Ethyl 2-{[(2-acetamidoethyl)thio]methyl}-6-{4-[(benzylsulfonyl)carbamoyl]piperidin-1-yl}-5-cyanonicotinate] |
| 0.044 | CCOC(=O)c1cc(C#N)c(N2CC(C(=O)NS(=O)(=O)Cc3ccccc3)C2)nc1COC(=O)CO [Example 14, Ethyl 6-{3-[(benzylsulfonyl)carbamoyl]azetidin-1-yl}-5-cyano-2-[(glycoloyloxy)methyl]nicotinate] |
| 0.031 | CCOC(=O)c1cc(Br)c(N2CCC(C(=O)NS(=O)(=O)Cc3ccccc3)CC2)nc1CN1CCCC1=O [Example 84, Ethyl 6-{4-[(benzylsulfonyl)carbamoyl]piperidin-1-yl}-5-bromo-2-[(2-oxopyrrolidin-1-yl)methyl]nicotinate] |
| 0.0097 | CCOC(=O)c1cc(C#N)c(N2CCC(C(=O)NS(=O)(=O)Cc3ccccc3)CC2)nc1CN1CCCC1=O [Example 33, Ethyl 6-{4-[(benzylsulfonyl)carbamoyl]piperidin-1-yl}-5-cyano-2-[(2-oxopyrrolidin-1-yl)methyl]nicotinate] |
| 0.038 | CC(C)OC(=O)c1cc(C#N)c(N2CCC(C(=O)NS(=O)(=O)Nc3ccc(F)cc3)CC2)nc1CN1CCCC1=O [Example 80, Isopropyl 5-cyano-6-[4-({[(4-fluorophenyl)amino]sulfonyl}carbamoyl)piperidin-1-yl]-2-[(2-oxopyrrolidin-1-yl)methyl]nicotinate] |
| 0.031 | CCOC(=O)c1cc(C#N)c(N2CCC(C(=O)NS(=O)(=O)Cc3ccccc3)CC2)nc1OCCO [Example 18, Ethyl 6-{4-[(benzylsulfonyl)carbamoyl]piperidin-1-yl}-5-cyano-2-(2-hydroxyethoxy)nicotinate] |
| 0.048 | CCOC(=O)c1cc(Cl)c(N2CCC(C(=O)NS(=O)(=O)Cc3ccccc3)CC2)nc1SCCNC(C)=O [Example 105, Ethyl 2-[(2-acetamidoethyl)thio]-6-{4-[(benzylsulfonyl)carbamoyl]piperidin-1-yl}-5-chloronicotinate] |
| 0.036 | CCOC(=O)c1cc(C#N)c(N2CCC(C(=O)NS(=O)(=O)N(C)c3ccccc3)CC2)nc1CN1CCCCC1=O [Example 71, Ethyl 5-cyano-6-[4-({[methyl(phenyl)amino]sulfonyl}carbamoyl)piperidin-1-yl]-2-[(2-oxopiperidin-1-yl)methyl]nicotinate] |

| SMILES | IC50 [µM] |
| --- | --- |
| CCOC(=O)c1cc(C#N)c(N2CCC(C(=O)NS(=O)(=O)Cc3ccccc3)CC2)nc1OC(C)=O [Example 2, Ethyl 2-acetoxy-6-{4-[(benzylsulfonyl)carbamoyl]piperidin-1-yl}-5-cyanonicotinate] | 0.024 |
